Data: US20120010245A1, “TRANSDERMAL PHARMACEUTICAL COMPOSITIONS COMPRISING A SERM” (BESINS HEALTHCARE LUXEMBOURG SARL, priority 2008, published 2012)
≈ marks a conversion by molar mass, not a printed value. Where “and” joins values, the source holds several entries; their conditions need not be identical. Identical values can stand only once. Counter-ions that a name gives are not always drawn. Like-named read-outs stand apart in the source and are kept apart here.

Tests used:
[1] = Skin permeation study in side-by-side diffusion cells; format: in vitro ADME, pig
Experimental: Skin permeation studies were carried out using opaque side-by-side diffusion cells with an effective diffusion area of 0.71 cm^2. […] The receptor solution was a 3% w/v cetrimide solution and allowed sink conditions to be maintained. The receptor phase was magnetically stirred at 100 rpm. Dermatomed abdominal pig skin (750 μm) was used. Skin was allowed to hydrate with isotonic saline solution for 1 h before the experiment was started. […] Experiments were performed under complete occlusion. Post-application, at scheduled times (1, 9, 20 and 24 hours), 1 ml samples were taken from the receiver compartment and replaced with the same volume of fresh, temperature-equilibrated receptor fluid. Samples were filtered through 0.45 μm PVDF membrane filters. The amount of endoxifen in the samples was determined by HPLC using the method described above.

[2] = Stability in analysis medium (cetrimide solution, 3%); format: physicochemical; settings: 3% cetrimide solution
[3] = Solubility studies (saturated solubility, HPLC); format: physicochemical; settings: for solubility: aqueous with cosolvent or surfactant or cyclodextrin, thermodynamic from solid
Experimental: (§1) The saturated solubilities of endoxifen were determined in a mixture of absolute ethanol/water (70:30, w/w) by shaking an excess amount of drug in 1 ml of the co-solvent system for at least 24 hours at room temperature. The concentrations of the saturated solutions were determined by HPLC analysis after appropriate dilution.
as §1, with “clomifene citrate” for “endoxifen”, “series” for “mixture”, “of” for “of absolute”, “mixtures (40:60, 50:50, 60:40 and 70:30,” for “(70:30,”, “0.6” for “1”, “temperature. […]” for “temperature.”
The concentrations of the saturated solutions were determined by HPLC analysis after appropriate dilution.
as §1, with “toremifene” for “endoxifen”, “series” for “mixture”, “of” for “of absolute”, “mixtures (40:60, 50:50, 60:40 and 70:30,” for “(70:30,”, “temperature. […]” for “temperature.”

[4] = Solubility studies (saturated solubility, HPLC); format: physicochemical; settings: 3% w/v cetrimide solution, aqueous with cosolvent or surfactant or cyclodextrin, thermodynamic from solid, room temperature
[5] = ethanol/water 70:30 w/w co-solvent system, room temperature, read-out: Solubility in ethanol:water (70:30 w/w)
[6] = 1 hr, saturated solution in 70:30 w/w ethanol-water, donor 30.46 mg/mL
[7] = 1 h, saturated solution of the drug in 70:30 w/w ethanol-water, — not defined here (Table 2: below LOD)

CCC(=C(c1ccc(O)cc1)c1ccc(OCCN(C)C)cc1)c1ccccc1 [4-OH Tamoxifen, 1-[4-(2-N-dimethylaminoethoxy)phenyl]-1-(4-hydroxyphenyl)-2-phenylbut-1-ene]
cumulative permeation, single cells ([1]; 9 hr, saturated solution in 70:30 v/v ethanol-water, — not defined here (Table 2: below LOD)): 4.1 μg/cm^2 and 3.3 μg/cm^2 | cumulative permeation, Average (±SD) ([1]; 20 hr, saturated solution in 70:30 v/v ethanol-water): 8.3 ± 4.7 μg/cm^2 | cumulative permeation, Average (±SD) ([1]; 24 hr, saturated solution in 70:30 v/v ethanol-water): 12.5 ± 6.3 μg/cm^2 | cumulative permeation, Average (±SD) ([1]; 24 hr, saturated solution in 70:30 v/v ethanol-water, listed as 4-OH tamoxifen): 12.5 μg/cm^2 | Stability in analysis medium ([2]; 30 hours): stable

CC/C(=C(/c1ccc(OCCN(C)C)cc1)c1cccc(O)c1)c1ccccc1 [droloxifene citrate, 3-[(1E)-1-[4-[2-(Dimethylamino)ethoxy]phenyl]-2-phenyl-1-butenyl]phenol]
cumulative permeation, Mean (±SD) ([1]; 20 h, saturated solution in 70:30 w/w ethanol-water, donor 45.93±[…]): 0.62 ± 0.37 μg/cm^2 | solubility [3, 5]: 47400 ± 1700 µg/mL | solubility ([4]; n=2): 8900 ± 200 µg/mL | Stability in analysis medium ([2]; 24 hours): stable

CC/C(=C(\c1ccc(O)cc1)c1ccc(OCCNC)cc1)c1ccccc1 [endoxifen, 4-hydroxy-N-desmethyl-tamoxifen]
experimental permeation after 24 hours relative to in silico prediction ([1]; 37.29 μg/cm^2 versus about 0.98 μg/cm^2 in 24 hours): 40 times higher | cumulative permeation, Mean (±SD) [1, 6]: — ((—) below the limit of detection (LOD) of 30 ng/ml.) | cumulative permeation, single cells [1, 6]: — ((—) below the limit of detection (LOD) of 30 ng/ml.) | cumulative permeation, Mean (±SD) ([1]; 9 hr, saturated solution in 70:30 w/w ethanol-water, donor 30.46 mg/mL): 0.31 ± 0.36 μg/cm^2 | cumulative permeation, Mean (±SD) ([1]; 20 hr, saturated solution in 70:30 w/w ethanol-water, donor 30.46 mg/mL): 17.24 ± 15.13 μg/cm^2 | solubility [3, 5]: 38700 µg/mL (≈ 104000 µM) | solubility [4]: 6260 ± 280 µg/mL (≈ 16800 µM) | Stability in analysis medium ([2]; 24 hours): stable

CN(C)CCOc1ccc(/C(=C(/CCCl)c2ccccc2)c2ccccc2)cc1 [toremifene]
cumulative permeation, Mean (±SD) [1, 7]: 3.38 μg/cm^2 | cumulative permeation, single cells [1, 7]: 3.38 μg/cm^2 | cumulative permeation, Mean (±SD) ([1]; 9 h, saturated solution of the drug in 70:30 w/w ethanol-water, — not defined here (Table 2: below LOD)): 1.53 ± 2.6 μg/cm^2 | cumulative permeation, Mean (±SD) ([1]; 20 h, saturated solution of the drug in 70:30 w/w ethanol-water): 3.89 ± 3.2 μg/cm^2 | solubility ([3]; 3% w/v cetrimide solution, room temperature, read-out: Solubility in 3% cetrimide solution): 302 ± 14 µg/mL (≈ 744 µM) | Saturated solubility, Expt 1-3 ([3]; EtOH:Water 40:60 w/w, single experiments): 75.4 µg/mL and 74 µg/mL | Saturated solubility, Expt 1-3 ([3]; EtOH:Water 50:50 w/w, single experiments): 333 µg/mL and 324 µg/mL | Saturated solubility, Expt 1-3 ([3]; EtOH:Water 60:40 w/w, single experiments): 1063 µg/mL and 1009 µg/mL | Saturated solubility, Expt 1-3 ([3]; EtOH:Water 70:30 w/w, single experiments): 2698 µg/mL and 2623 µg/mL | solubility ([3]; ethanol/water 40:60 w/w co-solvent system, EtOH:Water 40:60 w/w, n=3, read-out: Saturated solubility, Average concentration ± SD): 74.7 ± 1.1 µg/mL (≈ 184 µM) | solubility ([3]; ethanol/water 40:60 w/w co-solvent system, EtOH:Water 40:60 w/w, single experiments, read-out: Saturated solubility, Expt 1-3): 74.8 µg/mL (≈ 184 µM) | solubility ([3]; ethanol/water 50:50 w/w co-solvent system, EtOH:Water 50:50 w/w, n=3, read-out: Saturated solubility, Average concentration ± SD): 335 ± 15 µg/mL (≈ 825 µM) | solubility ([3]; ethanol/water 50:50 w/w co-solvent system, EtOH:Water 50:50 w/w, single experiments, read-out: Saturated solubility, Expt 1-3): 350 µg/mL (≈ 862 µM) | solubility ([3]; ethanol/water 60:40 w/w co-solvent system, EtOH:Water 60:40 w/w, n=3, read-out: Saturated solubility, Average concentration ± SD): 1050 ± 37 µg/mL (≈ 2600 µM) | solubility ([3]; ethanol/water 60:40 w/w co-solvent system, EtOH:Water 60:40 w/w, single experiments, read-out: Saturated solubility, Expt 1-3): 1090 µg/mL (≈ 2680 µM) | solubility ([3]; ethanol/water 70:30 w/w co-solvent system, EtOH:Water 70:30 w/w, n=3, read-out: Saturated solubility, Average concentration ± SD): 2730 ± 124 µg/mL (≈ 6720 µM) | solubility ([3]; ethanol/water 70:30 w/w co-solvent system, EtOH:Water 70:30 w/w, single experiments, read-out: Saturated solubility, Expt 1-3): 2860 µg/mL (≈ 7050 µM) | Stability in analysis medium ([2]; 24 hours): stable
